Data published in US4822775A, “Phenyl substituted dipeptide amides” (priority 1986, dated 1989).
Read-outs that look alike come from different tables or passages of the source.

Experiments:
mice = assay: Writhing assay (phenylbenzoquinone-induced writhing); format: in vivo, mouse; conditions: 30 min before phenylbenzoquinone i.p.; for Writhing Mouse Oral: screening dose 10 mg/kg p.o. (intragastric); for Writhing Mouse Subc.: screening dose 10 mg/kg s.c.
Protocol: Writhing assay. Male Charles River albino mice (CD-1/HAM/1LR) weighing between 20 and 30 grams were used. Thirty minutes after subcutaneous or intragastric administration of the test compound (0.1 mg/10 gram body weight), 0.025% (w/v) phenylbenzoquinone was injected intraperitoneally (0.1 ml/10 gram body weight). Five minutes later, each mouse was placed in a large glass beaker and the number of writhes that occurred in the subsequent ten minutes is counted. A writhe consisted of dorsoflexion of the back, extension of the hindlimbs, and strong contraction of the abdominal musculature. The test compounds was considered to have produced analgesia in a mouse if the number of writhes elicited by phenylbenzoquinone was equal to or less than one-half the median number of writhes recorded for the saline-treated group that day. The results were expressed as the number of mice (out of a possible ten) in which the test compound produced analgesia.

[1] = target: opiate receptors isolated from rat brain; format: binding; conditions: for IC50: read-out: Opiate Binding, IC50
opiate activity = conditions: cited from earlier work
rat = conditions: injected directly into the brain of the rat; cited from earlier work
[2] = 1 nM 3H-Naloxone, rat brain receptor membranes, standard screening dose 10^-5 molar (words such as Inactive refer to it)
[3] = 1 nM 3H-Naloxone, rat brain receptor membranes, standard screening dose 10^-5 molar (words such as Inactive refer to it), monohydrochloride

Compound	Writhing Mouse Oral (mice)	Writhing Mouse Subc. (mice)	also measured
2,6-dimethyl-L-tyrosyl-N-[2-(2-thienyl)ethyl]-D-alaninamide, monohydrochloride [Example 39]	Inactive	Inactive	
2,6-dimethyltyrosyl-N-(2,3-dihydro-1H-inden-2-yl)-D-alaninamide, monohydrochloride [Example 24]	Inactive	Lethal	IC50 [1, 2]: 860 nM
2,6-dimethyltyrosyl-N-(6-methoxy-6-oxohexyl)-D-alaninamide, monohydrochloride [Example 5]		Inactive	IC50 [1, 3]: 10000 nM
2,6-dimethyltyrosyl-N-(6-methoxy-6-oxohexyl)-D-alaninamide, monohydrochloride [Example 7]	Inactive	Inactive	IC50 [1, 3]: 1000 nM
2,6-dimethyltyrosyl-N-[3-(2-thienyl)propyl]-D-alaninamide, monohydrochloride [Example 46]			IC50 [1, 3]: 220 nM; Writhing Mouse Oral (mice; monohydrochloride, 10 mg/kg): Inactive; Writhing Mouse Subc. (mice; monohydrochloride, 10 mg/kg): Inactive
2,6-dimethyltyrosyl-N-[3-(2-thienyl)propyl]-D-alaninamide, monohydrochloride [Example 47]			IC50 [1, 3]: 2.9 nM; Writhing Mouse Oral (mice; monohydrochloride, 10 mg/kg): Active; Writhing Mouse Subc. (mice; monohydrochloride, 10 mg/kg): Active
2,6-dimethyltyrosyl-N-[3-(3-thienyl)-2E-propenyl]-D-alaninamide, monohydrochloride [Example 58]	Inactive	Active	IC50 [1, 2]: 1 nM
2,6-dimetyltyrosyl-N-[3-(2-thienyl)-2E-propenyl]-D-alaninamide, monohydrochloride [Example 52]	Inactive	Active	
2-(2R-amino-1-oxopropyl)-1,2,3,4-tetrahydroisoquinoline, monohydrochloride [Example 32]	Active	Inactive	Opiate Binding, IC50 [1, 2]: Inactive
Cc1cc(O)cc(C)c1CC(NC(=O)OC(C)(C)C)C(=O)N[C@H](C)C(=O)NCCSc1ccccc1 (mixture of isomers) [Example 108, N-[(1,1-dimethylethoxy)carbonyl]-2,6-dimethyl-DL-tyrosyl-N-[2-(phenythio)ethyl]-D-alaninamide]	Inactive	Active	IC50 [1]: 8.2 nM
Cc1cc(O)cc(C)c1CC(NC(=O)OC(C)(C)C)C(=O)N[C@H](C)C(=O)NCCOc1ccccc1 (mixture of isomers) [Example 115, N-[(1,1-dimethylethoxy)carbonyl]O2,6-dimethyl-DL-tyrosyl-N-(2-phenoxyethyl)-D-alaninamide]	Active	Active	IC50 [1]: 8.7 nM
Cc1cc(O)cc(C)c1C[C@H](N)C(=O)N[C@@H](C)C(=O)N1CCCc2ccccc21.Cl (relative stereo) [Example 29, αS-R*-amino-4-hydroxy-2,6-dimethyl-N-[1S*-methyl-2-oxo-2-(1,2,3,4-tetrahydro-1-quinolinyl)ethyl]benzenepropanamide, monohydrochloride]	Inactive	Inactive	IC50 [1]: 4900 nM
Cc1cc(O)cc(C)c1C[C@H](N)C(=O)N[C@H](C)C(=O)N1CCc2ccccc2C1.Cl (single isomer, unassigned) [Example 35, α-amino-4-hydroxy-2,6-dimethyl-N-[1R-methyl-2-oxo-2-(1,2,3,4-tetrahydro-2-isoquinolinyl)ethyl]benzenepropanamide, monohyrochloride]	Active	Active	IC50 [1, 2]: 14 nM
C[C@@H](NC(=O)OCc1ccccc1)C(=O)NC1Cc2ccccc2C1 [Example 20, phenylmethyl [2-[(2,3-dihydro-1H-inden-2-yl)amino]-1R-methyl-2-oxoethyl]carbamate]	Inactive	Active	Opiate Binding, IC50 [1, 2]: Inactive
C[C@@H](N)C(=O)NC1Cc2ccccc2C1 [Example 21]	Inactive	Active	Opiate Binding, IC50 [1]: Inactive
C[C@@H](NC(=O)OCc1ccccc1)C(=O)N1CCCc2ccccc21 [Example 25, phenylmethyl [1R-methyl-2-oxo-2-(1,2,3,4-tetrahydro-1-quinolinyl)ethyl]carbamate]	Inactive	Inactive	IC50 [1, 2]: 80000 nM
C[C@@H](N)C(=O)NCCCc1cccs1 [Example 44, 2R-amino-N-[3-(2-thienyl)propyl]propanamide]	Active	Active	Opiate Binding, IC50 [1, 2]: Inactive
COc1ccc(CCCNC(=O)[C@@H](C)N)cc1 [Example 60, αR-amino-N-[3-(4-methoxyphenyl)propyl]propanamide]	Active	Active	IC50 [1, 2]: 36000 nM
Cc1cc(O)cc(C)c1C[C@H](N)C(=O)N[C@H](C)C(=O)NCCC(c1ccccc1)c1ccccc1.Cl [Example 73, 2,6-dimethyltyrosyl-N-(3,3-diphenylpropyl)-D-alaninamide, monohydrochloride]	Inactive	Active	IC50 [1, 2]: 0.3 nM
Cc1cc(O)cc(C)c1C[C@H](N)C(=O)N[C@H](C)C(=O)NCCSc1ccccc1.Cl [Example 109, 2,6-dimethyltyrosyl-N-[2-(2-(phenylthio)ethyl]-D-alaninamide, monohydrochloride]			IC50 [1]: 0.4 nM
Cc1cc(O)cc(C)c1C[C@H](N)C(=O)N[C@H](C)C(=O)NCCSc1ccccc1.Cl [Example 109]	Inactive	Active	
methionine enkephalin			activity in bioassays for opiate activity (opiate activity): highly active; analgesic activity (rat): only weak, fleeting analgesic activity
α-amino-4-hydroxy-2,6-dimethyl-N-[1R-methyl-2-oxo-2-(1,2,3,4-tetrahydro-1-quinolinyl)ethyl]benzenepropanamide, monohydrochloride [Example 30]	Inactive	Inactive	
α-amino-4-hydroxy-2,6-dimethyl-N-[1R-methyl-2-oxo-2-(1,2,3,4-tetrahydro-2-isoquinolinyl)ethyl]benzenepropanamide, monohydrochloride [Example 37]	Inactive	Inactive	IC50 [1, 2]: 1400 nM
